Measured values: the supplement of paper PMC6045584

Key:
Assay in all cases: area under dose-response curve of surviving fraction (unscaled, Aref=0) (surviving fraction x log10(nM)); higher = more resistant
Conditions in all cases: exposure time: 5 days; dose range 0.5-1000 nM
[1] = compound: CC/C(=C(\c1ccc(O)cc1)c1ccc(OCCN(C)C)cc1)c1ccccc1 [AFIMOXIFENE]
Procedure, shortened: (§1)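 Inhibitor was applied to tumour cell lines at eight concentrations (0.5 to 1000 nM) for five days in 384-well plates. Luminescence from CellTiter-Glo, scaled to DMSO-only wells, gave surviving fractions in three screens per line, and these were fitted by 3-parameter logistic regression with the drc R package. The area under the curve is an unscaled activity area. Aref was 0, and dose was on a log10 scale.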

[2] = compound: Cc1c(N)nc([C@H](CC(N)=O)NC[C@H](N)C(N)=O)nc1C(=O)N[C@H](C(=O)N[C@H](C)[C@@H](O)[C@H](C)C(=O)N[C@H](C(=O)NCCc1nc(-c2nc(C(=O)NCCC[S+](C)C)cs2)cs1)[C@@H](C)O)[C@@H](OC1OC(CO)C(O)C(O)C1OC1OC(CO)C(O)C(OC(N)=O)C1O)c1cnc[nH]1 [BLEOMYCIN]
Procedure, shortened: as §1

[3] = compound: C[C@H](CN(C)C)Oc1nc(Nc2cc3cccc(Cl)c3cn2)cnc1C#N
Procedure, shortened: as §1

[4] = compound: COc1cc2nccc(Oc3ccc(NC(=O)C4(C(=O)Nc5ccc(F)cc5)CC4)cc3)c2cc1OC [CABOZANTINIB]
Procedure, shortened: as §1

[5] = compound: Cc1ccc(NC(=O)c2ccc(CN3CCN(C)CC3)cc2)cc1Nc1nccc(-c2cccnc2)n1 [IMATINIB]
Procedure, shortened: as §1

[6] = compound: COc1ccc(-c2cc3c(C)nc(N)nc3n([C@H]3CC[C@H](OCCO)CC3)c2=O)cn1
Procedure, shortened: as §1

[7] = compound: Cn1c(=O)n(-c2ccc(C(C)(C)C#N)cc2)c2c3cc(-c4cnc5ccccc5c4)ccc3ncc21 [BEZ-235]
Procedure, shortened: as §1

[8] = compound: CCc1cc(Nc2nccc(-c3c(-c4ccc(OC)c(C(=O)Nc5c(F)cccc5F)c4)nc4ccccn34)n2)c(OC)cc1N1CCC(N2CCN(S(C)(=O)=O)CC2)CC1
Procedure, shortened: as §1

[9] = compound: O=C(CCCCCCC(=O)Nc1ccccc1)NO [VORINOSTAT]
Procedure, shortened: as §1

[10] = compound: C=CCn1c(=O)c2cnc(Nc3ccc(N4CCN(C)CC4)cc3)nc2n1-c1cccc(C(C)(C)O)n1 [MK-1775]
Procedure, shortened: as §1

[11] = compound: Cn1ncnc1[C@H]1c2n[nH]c(=O)c3cc(F)cc(c23)N[C@@H]1c1ccc(F)cc1 [BMN-673]
Procedure, shortened: as §1

[12] = compound: COc1cc2nccc(Oc3ccc(NC(=O)NC4CC4)c(Cl)c3)c2cc1C(N)=O [LENVATINIB]
Procedure, shortened: as §1

[13] = compound: C[C@@H]1CN(CC(=O)Nc2ccc3c(c2)Cc2cccc(-c4cc(=O)cc(N5CCOCC5)o4)c2S3)C[C@H](C)O1
Procedure, shortened: as §1

[14] = compound: Cc1cn(-c2cc(NC(=O)c3ccc(C)c(Nc4nccc(-c5cccnc5)n4)c3)cc(C(F)(F)F)c2)cn1 [NILOTINIB]
Procedure, shortened: as §1

In the case of VP229 BREAST, the “area under dose-response curve” value [1] is reported as 3.71, the “area under dose-response curve” value [2] is reported as 2.61 and the “area under dose-response curve” value [3] is reported as 3.45. The “area under dose-response curve” value [4] was 3.43, the “area under dose-response curve” value [5] was 4.06 and the “area under dose-response curve” value [6] was 2.08. For the same test system, the “area under dose-response curve” value [7] was 2.64, the “area under dose-response curve” value [8] was 3.66 and the “area under dose-response curve” value [9] was 3.08. For the same test system, the “area under dose-response curve” value [10] was 2.75, the “area under dose-response curve” value [11] was 3.22 and the “area under dose-response curve” value [12] was 4.16. The “area under dose-response curve” value [13] was 3.29 and the “area under dose-response curve” value [14] was 3.75.
